The source made the active and inactive calls. No cut-off for these calls is given here.
What was measured:
U-937 = assay: Antiproliferative activity against human U937 cells after 24 hrs by MTT assay; format: functional; settings: U-937, 24 h
A375P = assay: Antiproliferative activity against human A375P cells after 24 hrs by MTT assay; format: functional, cell-based
[1] = Cytotoxicity against human HS27 cells after 24 hrs by MTT assay; format: cell-based
[2] = target: T1, Serine/threonine-protein kinase mTOR (Homo sapiens, UniProt P42345); assay: Inhibition of mTOR (unknown origin) after 40 mins by scintillation counting analysis
[3] = target: RAC-alpha serine/threonine-protein kinase (Homo sapiens) (UniProt P31749); assay: Inhibition of AKT1 (unknown origin) at 10 uM after 40 mins by scintillation counting analysis
[4] = target: ALK tyrosine kinase receptor (Homo sapiens) (UniProt Q9UM73); assay: Inhibition of ALK (unknown origin) at 10 uM after 40 mins by scintillation counting analysis
[5] = target: Aurora kinase A (Homo sapiens) (UniProt O14965); assay: Inhibition of Aurora A (unknown origin) at 10 uM after 40 mins by scintillation counting analysis
[6] = target: T2, Serine/threonine-protein kinase B-raf (Homo sapiens, UniProt P15056); assay: Inhibition of BRAF (unknown origin) at 10 uM after 40 mins by scintillation counting analysis
[7] = tested on: Serine/threonine-protein kinase B-raf (Homo sapiens), P15056 [V600E]; assay: Inhibition of BRAF V599E mutant (unknown origin) at 10 uM after 40 mins by scintillation counting analysis
[8] = target: Mast/stem cell growth factor receptor Kit (Homo sapiens) (UniProt P10721); assay: Inhibition of c-Kit (unknown origin) at 10 uM after 40 mins by scintillation counting analysis
[9] = target: Hepatocyte growth factor receptor (Homo sapiens) (UniProt P08581); assay: Inhibition of c-MET (unknown origin) at 10 uM after 40 mins by scintillation counting analysis
[10] = target: Cyclin-dependent kinase 1/cyclin B (Homo sapiens) (UniProt P06493+P14635+Q8WWL7+O95067); assay: Inhibition of CDK1/cyclin B (unknown origin) at 10 uM after 40 mins by scintillation counting analysis; format: protein-complex assay
[11] = target: Cyclin-dependent kinase 2/cyclin E (Homo sapiens) (UniProt P24864+P24941+O96020); assay: Inhibition of CDK2/cyclin E (unknown origin) at 10 uM after 40 mins by scintillation counting analysis; format: protein-complex assay
[12] = target: Epidermal growth factor receptor (Homo sapiens) (UniProt P00533); assay: Inhibition of EGFR (unknown origin) at 10 uM after 40 mins by scintillation counting analysis
[13] = target: Mitogen-activated protein kinase 3 (Homo sapiens) (UniProt P27361); assay: Inhibition of ErK1 (unknown origin) at 10 uM after 40 mins by scintillation counting analysis
[14] = target: Focal adhesion kinase 1 (Homo sapiens) (UniProt Q05397); assay: Inhibition of FAK (unknown origin) at 10 uM after 40 mins by scintillation counting analysis
[15] = target: Fibroblast growth factor receptor 2 (Homo sapiens) (UniProt P21802); assay: Inhibition of FGFR2 (unknown origin) at 10 uM after 40 mins by scintillation counting analysis
[16] = target: Fibroblast growth factor receptor 3 (Homo sapiens) (UniProt P22607); assay: Inhibition of FGFR3 (unknown origin) at 10 uM after 40 mins by scintillation counting analysis
[17] = target: Receptor-type tyrosine-protein kinase FLT3 (Homo sapiens) (UniProt P36888); assay: Inhibition of FLT3 (unknown origin) at 10 uM after 40 mins by scintillation counting analysis
[18] = target: T3, Macrophage colony-stimulating factor 1 receptor (Homo sapiens, UniProt P07333); assay: Inhibition of FMS (unknown origin) at 10 uM after 40 mins by scintillation counting analysis
[19] = target: Glycogen synthase kinase-3 beta (Homo sapiens) (UniProt P49841); assay: Inhibition of GSK3b (unknown origin) at 10 uM after 40 mins by scintillation counting analysis
[20] = target: Insulin-like growth factor 1 receptor (Homo sapiens) (UniProt P08069); assay: Inhibition of IGF1R (unknown origin) at 10 uM after 40 mins by scintillation counting analysis
[21] = target: Tyrosine-protein kinase JAK3 (Homo sapiens) (UniProt P52333); assay: Inhibition of Jak3 (unknown origin) at 10 uM after 40 mins by scintillation counting analysis
[22] = target: Mitogen-activated protein kinase 10 (Homo sapiens) (UniProt P53779); assay: Inhibition of JNK3 (unknown origin) at 10 uM after 40 mins by scintillation counting analysis
[23] = target: Vascular endothelial growth factor receptor 2 (Homo sapiens) (UniProt P35968); assay: Inhibition of VEGFR2 (unknown origin) at 10 uM after 40 mins by scintillation counting analysis
[24] = target: T4, Tyrosine-protein kinase Lyn (Homo sapiens, UniProt P07948); assay: Inhibition of Lyn (unknown origin) at 10 uM after 40 mins by scintillation counting analysis
[25] = target: Dual specificity mitogen-activated protein kinase kinase 1 (Homo sapiens) (UniProt Q02750); assay: Inhibition of MEK1 (unknown origin) at 10 uM after 40 mins by scintillation counting analysis
[26] = target: T1, Serine/threonine-protein kinase mTOR; assay: Inhibition of mTOR (unknown origin) at 10 uM after 40 mins by scintillation counting analysis
[27] = target: cAMP-dependent protein kinase (PKA) (Homo sapiens) (UniProt P22694+P17612+P22612); assay: Inhibition of PKA (unknown origin) at 10 uM after 40 mins by scintillation counting analysis; format: protein assay
[28] = target: Serine/threonine-protein kinase PLK1 (Homo sapiens) (UniProt P53350); assay: Inhibition of PLK1 (unknown origin) at 10 uM after 40 mins by scintillation counting analysis
[29] = target: T5, RAF proto-oncogene serine/threonine-protein kinase (Homo sapiens, UniProt P04049); assay: Inhibition of RAF1 (unknown origin) at 10 uM after 40 mins by scintillation counting analysis
[30] = target: Macrophage-stimulating protein receptor (Homo sapiens) (UniProt Q04912); assay: Inhibition of RON (unknown origin) at 10 uM after 40 mins by scintillation counting analysis
[31] = target: Proto-oncogene tyrosine-protein kinase ROS (Homo sapiens) (UniProt P08922); assay: Inhibition of ROS1 (unknown origin) at 10 uM after 40 mins by scintillation counting analysis
[32] = target: Tyrosine-protein kinase SYK (Homo sapiens) (UniProt P43405); assay: Inhibition of SYK (unknown origin) at 10 uM after 40 mins by scintillation counting analysis
[33] = target: T2, Serine/threonine-protein kinase B-raf; assay: Inhibition of BRAF (unknown origin) after 40 mins by scintillation counting analysis
[34] = target: Serine/threonine-protein kinase B-raf (Homo sapiens, UniProt P15056, V600E); assay: Inhibition of BRAF V599E mutant (unknown origin) after 40 mins by scintillation counting analysis
[35] = target: T3, Macrophage colony-stimulating factor 1 receptor; assay: Inhibition of FMS (unknown origin) after 40 mins by scintillation counting analysis
[36] = target: T4, Tyrosine-protein kinase Lyn; assay: Inhibition of Lyn (unknown origin) after 40 mins by scintillation counting analysis
[37] = target: T5, RAF proto-oncogene serine/threonine-protein kinase; assay: Inhibition of C-Raf (unknown origin) after 40 mins by scintillation counting analysis

T3 sequence (P07333 whole entry): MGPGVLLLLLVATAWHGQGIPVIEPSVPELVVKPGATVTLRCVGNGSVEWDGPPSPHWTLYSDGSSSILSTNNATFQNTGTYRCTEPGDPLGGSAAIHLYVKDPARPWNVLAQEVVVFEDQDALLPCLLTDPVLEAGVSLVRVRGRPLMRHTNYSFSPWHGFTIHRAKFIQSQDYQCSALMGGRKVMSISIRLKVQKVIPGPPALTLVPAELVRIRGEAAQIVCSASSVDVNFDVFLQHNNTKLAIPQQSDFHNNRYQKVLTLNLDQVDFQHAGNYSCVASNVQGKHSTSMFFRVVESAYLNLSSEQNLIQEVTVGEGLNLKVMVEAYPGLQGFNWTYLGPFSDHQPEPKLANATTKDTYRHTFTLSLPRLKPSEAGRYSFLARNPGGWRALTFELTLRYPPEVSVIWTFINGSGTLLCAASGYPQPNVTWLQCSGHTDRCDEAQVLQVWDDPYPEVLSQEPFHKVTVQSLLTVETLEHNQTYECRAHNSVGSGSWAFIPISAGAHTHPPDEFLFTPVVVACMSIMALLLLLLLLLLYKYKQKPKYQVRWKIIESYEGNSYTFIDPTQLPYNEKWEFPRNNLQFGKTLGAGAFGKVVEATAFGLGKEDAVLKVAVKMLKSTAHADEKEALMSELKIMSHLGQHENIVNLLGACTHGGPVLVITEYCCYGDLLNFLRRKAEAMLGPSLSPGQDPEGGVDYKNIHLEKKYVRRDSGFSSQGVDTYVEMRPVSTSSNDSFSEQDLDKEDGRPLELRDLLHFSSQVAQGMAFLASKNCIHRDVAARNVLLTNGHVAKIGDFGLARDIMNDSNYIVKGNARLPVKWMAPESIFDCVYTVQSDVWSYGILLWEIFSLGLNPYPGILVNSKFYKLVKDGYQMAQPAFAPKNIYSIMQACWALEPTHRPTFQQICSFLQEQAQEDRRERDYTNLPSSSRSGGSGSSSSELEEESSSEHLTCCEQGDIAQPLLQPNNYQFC
T5 sequence (P04049 whole entry): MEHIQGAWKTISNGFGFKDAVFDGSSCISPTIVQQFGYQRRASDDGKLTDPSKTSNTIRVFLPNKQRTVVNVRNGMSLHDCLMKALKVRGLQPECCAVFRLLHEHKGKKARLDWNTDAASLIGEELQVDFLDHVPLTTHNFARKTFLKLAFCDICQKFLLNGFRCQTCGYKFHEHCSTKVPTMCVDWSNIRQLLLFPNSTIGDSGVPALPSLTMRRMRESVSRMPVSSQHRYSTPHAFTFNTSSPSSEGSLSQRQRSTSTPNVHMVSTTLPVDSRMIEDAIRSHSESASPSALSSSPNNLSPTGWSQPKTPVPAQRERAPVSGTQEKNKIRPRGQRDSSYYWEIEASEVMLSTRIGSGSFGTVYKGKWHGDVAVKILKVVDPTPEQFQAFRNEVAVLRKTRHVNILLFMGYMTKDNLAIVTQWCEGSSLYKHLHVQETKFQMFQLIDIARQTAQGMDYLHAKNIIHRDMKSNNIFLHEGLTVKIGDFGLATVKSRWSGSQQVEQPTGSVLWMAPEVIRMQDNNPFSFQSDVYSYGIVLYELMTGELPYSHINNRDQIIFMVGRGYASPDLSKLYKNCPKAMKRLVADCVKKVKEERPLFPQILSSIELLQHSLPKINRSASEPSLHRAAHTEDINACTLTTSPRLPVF
T2 sequence (P15056 whole entry): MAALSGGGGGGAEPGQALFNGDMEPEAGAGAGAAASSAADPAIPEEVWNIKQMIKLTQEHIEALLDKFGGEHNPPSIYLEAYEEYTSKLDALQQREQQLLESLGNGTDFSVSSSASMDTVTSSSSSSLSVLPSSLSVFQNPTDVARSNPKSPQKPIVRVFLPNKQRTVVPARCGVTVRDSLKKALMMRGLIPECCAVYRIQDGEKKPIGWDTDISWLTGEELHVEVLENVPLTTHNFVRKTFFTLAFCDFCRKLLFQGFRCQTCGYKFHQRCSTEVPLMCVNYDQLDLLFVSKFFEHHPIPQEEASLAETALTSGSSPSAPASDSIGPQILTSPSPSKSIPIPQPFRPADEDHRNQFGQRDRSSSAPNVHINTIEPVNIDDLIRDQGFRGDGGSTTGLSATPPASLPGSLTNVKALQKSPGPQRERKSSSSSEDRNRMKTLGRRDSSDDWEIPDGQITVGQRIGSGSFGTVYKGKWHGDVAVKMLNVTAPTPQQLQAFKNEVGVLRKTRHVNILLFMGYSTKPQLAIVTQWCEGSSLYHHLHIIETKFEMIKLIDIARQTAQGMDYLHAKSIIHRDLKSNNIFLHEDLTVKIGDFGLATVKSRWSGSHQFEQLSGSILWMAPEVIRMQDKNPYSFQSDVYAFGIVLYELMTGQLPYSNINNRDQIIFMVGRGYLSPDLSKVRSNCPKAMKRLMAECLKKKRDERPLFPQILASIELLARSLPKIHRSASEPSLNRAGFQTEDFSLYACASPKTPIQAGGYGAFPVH
Focal adhesion kinase 1 (Homo sapiens), sequence (Q05397 2-1052 limits assumed): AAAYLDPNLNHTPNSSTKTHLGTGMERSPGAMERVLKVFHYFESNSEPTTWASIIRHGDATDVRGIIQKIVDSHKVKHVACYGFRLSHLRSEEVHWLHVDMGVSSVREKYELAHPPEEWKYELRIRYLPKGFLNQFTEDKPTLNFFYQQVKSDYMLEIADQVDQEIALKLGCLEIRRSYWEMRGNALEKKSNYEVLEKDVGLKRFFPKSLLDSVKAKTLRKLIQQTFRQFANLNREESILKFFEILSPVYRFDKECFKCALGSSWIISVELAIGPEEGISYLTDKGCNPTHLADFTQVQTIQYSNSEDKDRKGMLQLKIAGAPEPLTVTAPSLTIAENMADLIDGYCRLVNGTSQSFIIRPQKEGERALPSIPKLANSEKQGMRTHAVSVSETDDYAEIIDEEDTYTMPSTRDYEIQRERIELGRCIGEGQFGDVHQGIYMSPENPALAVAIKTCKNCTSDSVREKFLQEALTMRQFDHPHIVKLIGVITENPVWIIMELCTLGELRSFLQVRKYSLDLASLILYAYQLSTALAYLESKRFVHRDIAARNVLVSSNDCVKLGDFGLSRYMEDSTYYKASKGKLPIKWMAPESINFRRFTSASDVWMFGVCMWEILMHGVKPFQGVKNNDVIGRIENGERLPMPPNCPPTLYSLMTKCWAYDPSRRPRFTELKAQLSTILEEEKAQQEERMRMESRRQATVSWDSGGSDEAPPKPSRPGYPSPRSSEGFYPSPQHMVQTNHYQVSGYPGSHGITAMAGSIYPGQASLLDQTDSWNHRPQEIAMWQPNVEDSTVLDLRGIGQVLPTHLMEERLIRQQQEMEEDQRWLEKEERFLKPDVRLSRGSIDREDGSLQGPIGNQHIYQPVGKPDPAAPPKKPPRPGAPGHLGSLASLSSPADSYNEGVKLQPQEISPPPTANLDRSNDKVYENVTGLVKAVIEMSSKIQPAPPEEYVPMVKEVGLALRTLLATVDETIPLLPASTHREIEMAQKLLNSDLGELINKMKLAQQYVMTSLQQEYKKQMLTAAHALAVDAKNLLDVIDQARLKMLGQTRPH
Tyrosine-protein kinase JAK3 (Homo sapiens), sequence (P52333 whole entry): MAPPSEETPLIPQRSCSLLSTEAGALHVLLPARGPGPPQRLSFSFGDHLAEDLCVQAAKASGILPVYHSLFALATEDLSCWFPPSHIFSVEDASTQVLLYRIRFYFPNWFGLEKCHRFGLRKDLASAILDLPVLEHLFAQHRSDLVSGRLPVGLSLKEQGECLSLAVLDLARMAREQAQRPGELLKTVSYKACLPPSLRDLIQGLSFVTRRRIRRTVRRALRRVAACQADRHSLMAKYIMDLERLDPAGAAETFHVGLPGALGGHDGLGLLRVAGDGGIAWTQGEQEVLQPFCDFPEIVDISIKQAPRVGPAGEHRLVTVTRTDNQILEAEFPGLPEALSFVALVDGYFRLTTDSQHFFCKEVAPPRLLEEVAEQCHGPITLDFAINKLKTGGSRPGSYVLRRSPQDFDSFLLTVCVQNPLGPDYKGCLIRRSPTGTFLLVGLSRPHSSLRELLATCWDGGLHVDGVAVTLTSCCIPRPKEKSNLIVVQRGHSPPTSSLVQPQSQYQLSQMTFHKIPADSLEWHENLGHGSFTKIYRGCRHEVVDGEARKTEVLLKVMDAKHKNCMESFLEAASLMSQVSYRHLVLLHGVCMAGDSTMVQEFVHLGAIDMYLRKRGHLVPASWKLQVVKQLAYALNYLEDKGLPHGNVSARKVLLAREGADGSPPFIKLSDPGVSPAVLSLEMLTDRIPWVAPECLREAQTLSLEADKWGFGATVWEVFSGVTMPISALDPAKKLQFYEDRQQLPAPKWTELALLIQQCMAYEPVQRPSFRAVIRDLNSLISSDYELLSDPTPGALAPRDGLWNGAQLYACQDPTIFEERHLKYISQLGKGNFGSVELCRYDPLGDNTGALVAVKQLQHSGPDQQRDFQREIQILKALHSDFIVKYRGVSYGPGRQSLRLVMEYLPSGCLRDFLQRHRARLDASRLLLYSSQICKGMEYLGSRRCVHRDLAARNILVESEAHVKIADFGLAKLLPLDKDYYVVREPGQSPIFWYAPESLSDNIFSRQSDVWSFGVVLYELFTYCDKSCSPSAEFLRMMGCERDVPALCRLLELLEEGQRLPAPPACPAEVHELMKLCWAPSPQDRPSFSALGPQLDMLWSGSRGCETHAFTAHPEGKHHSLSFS
RAC-alpha serine/threonine-protein kinase (Homo sapiens), sequence (P31749 whole entry): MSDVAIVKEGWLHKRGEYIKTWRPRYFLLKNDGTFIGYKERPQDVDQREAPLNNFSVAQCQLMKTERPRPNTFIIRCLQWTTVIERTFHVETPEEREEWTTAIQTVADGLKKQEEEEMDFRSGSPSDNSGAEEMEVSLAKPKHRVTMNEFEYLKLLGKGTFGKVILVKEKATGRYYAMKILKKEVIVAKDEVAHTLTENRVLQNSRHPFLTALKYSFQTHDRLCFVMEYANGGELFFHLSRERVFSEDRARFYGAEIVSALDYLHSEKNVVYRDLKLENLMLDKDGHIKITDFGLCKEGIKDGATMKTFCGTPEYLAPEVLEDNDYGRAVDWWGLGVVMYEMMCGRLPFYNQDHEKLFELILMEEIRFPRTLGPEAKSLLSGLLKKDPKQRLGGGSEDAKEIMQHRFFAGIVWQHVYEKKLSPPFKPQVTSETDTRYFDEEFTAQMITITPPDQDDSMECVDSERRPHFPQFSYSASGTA
Serine/threonine-protein kinase B-raf (Homo sapiens), P15056 [V600E], sequence (P15056 whole entry V600E): as the sequence (P15056 whole entry) above, with V600E counted along it

For CCCS(=O)(=O)Nc1ccc(NC(=O)c2cnoc2C)c(C)c1, the GI50 (U-937) was over 30 µM, the Activity (A375P) was “inactive” and the GI50 at 24 h [1] was over 30 µM.

For Cc1ccc(NC(=O)Cc2ccccc2F)cc1NC(=O)c1cnoc1C, the GI50 (U-937) was over 30 µM, the Activity (A375P) was “inactive” and the GI50 at 24 h [1] was over 30 µM.

For Cc1ccc(NC(=O)Cc2c[nH]c3ccccc23)cc1NC(=O)c1cnoc1C, the GI50 (U-937) was over 30 µM, the Activity (A375P) was “inactive” and the GI50 at 24 h [1] was over 30 µM.

With Cc1ccc(NC(=O)Nc2ccccc2F)cc1NC(=O)c1cnoc1C the GI50 (U-937) was over 30 µM, the Activity (A375P) was “inactive” and the GI50 at 24 h [1] was over 30 µM.

For CNC(=O)c1cc(Oc2ccc(NC(=O)Nc3ccc(Cl)c(C(F)(F)F)c3)cc2)ccn1 [SORAFENIB], the Activity (A375P) was “inactive” and the GI50 at 24 h [1] was over 30 µM.

In the case of Cc1ccc(NC(=O)C(c2ccc(Cl)cc2)c2ccc(Cl)cc2)cc1NC(=O)c1cnoc1C, the GI50 (U-937) is reported as over 30 µM, the Activity (A375P) is reported as “inactive” and the GI50 at 24 h [1] is reported as over 30 µM.

For Cc1ccc(NC(=O)Nc2cccc(Cl)c2)cc1NC(=O)c1cnoc1C, the GI50 (U-937) was over 30 µM, the Activity (A375P) was “inactive” and the GI50 at 24 h [1] was over 30 µM.

With Cc1ccc(NC(=O)Nc2cccc(C(F)(F)F)c2)cc1NC(=O)c1cnoc1C the GI50 (U-937) was over 30 µM, the Activity (A375P) was “inactive” and the GI50 at 24 h [1] was over 30 µM.

For Cc1cc(NC(=O)Nc2cccc(C(F)(F)F)c2)ccc1NC(=O)c1cnoc1C, the GI50 (U-937) was over 30 µM, the Activity (A375P) was “inactive” and the GI50 at 24 h [1] was over 30 µM.

For Cc1cc(NC(=O)Nc2cccc(Cl)c2)ccc1NC(=O)c1cnoc1C, the GI50 (U-937) was over 30 µM, the Activity (A375P) was “inactive” and the GI50 at 24 h [1] was over 30 µM.

In the case of Cc1cc(NC(=O)Nc2ccccc2F)ccc1NC(=O)c1cnoc1C, the GI50 (U-937) is reported as over 30 µM, the Activity (A375P) is reported as “inactive” and the GI50 at 24 h [1] is reported as over 30 µM.

In the case of Cc1ccc(NC(=O)Nc2cc(Cl)cc(Cl)c2)cc1NC(=O)c1cnoc1C, the GI50 (U-937) is reported as over 30 µM, the Activity (A375P) is reported as “inactive” and the GI50 at 24 h [1] is reported as over 30 µM.

Molecule O=c1cc(N2CCOCC2)oc2c(-c3ccccc3)cccc12 [LY-294002] has an IC50 [2] of 9.9 µM.

In the case of Cc1ccc(NC(=O)c2cc(N3CCN(C)CC3)cc(C(F)(F)F)c2)cc1NC(=O)c1cnoc1C, the GI50 (U-937) is reported as 0.016 µM, the Activity (A375P) is reported as “inactive” and the GI50 at 24 h [1] is reported as over 30 µM. For the same molecule, the inhibition [3] was 5.73%, the inhibition [4] was 0% and the inhibition [5] was 0%. For the same molecule, the inhibition [6] was 61.2%, the inhibition [7] was 87.9% and the inhibition [8] was 7.5%. It also gave an inhibition [9] of 0%, an inhibition [10] of 0% and an inhibition [11] of 1.85%. It also gave an inhibition [12] of 4.68%, an inhibition [13] of 7.54% and an inhibition [14] of 0%. It also gave an inhibition [15] of 3.6%, an inhibition [16] of 0% and an inhibition [17] of 2.12%. It also gave an inhibition [18] of 98.7%, an inhibition [19] of 0% and an inhibition [20] of 0%. For the same molecule, the inhibition [21] was 0%, the inhibition [22] was 15.3% and the inhibition [23] was 8.27%. The inhibition [24] was 97.8%, the inhibition [25] was 0% and the inhibition [26] was 1.14%. The inhibition [27] was 0%, the inhibition [28] was 0% and the inhibition [29] was 95.9%. For the same molecule, the inhibition [30] was 0%, the inhibition [31] was 0% and the inhibition [32] was 3.81%. It also gave an IC50 [33] of 5.96 µM, an IC50 [34] of 0.668 µM and an IC50 [35] of 0.00995 µM. For the same molecule, the IC50 [36] was 0.0659 µM and the IC50 [37] was 0.0448 µM.

For Cc1cc(NC(=O)Nc2ccc(Cl)c(C(F)(F)F)c2)ccc1NC(=O)c1cnoc1C, the GI50 (U-937) was 16.5 µM, the Activity (A375P) was “inactive” and the GI50 at 24 h [1] was over 30 µM.

For Cc1ccc(NC(=O)c2cc(-n3ccnc3C)cc(C(F)(F)F)c2)cc1NC(=O)c1cnoc1C, the GI50 (U-937) was 0.019 µM, the Activity (A375P) was “inactive” and the GI50 at 24 h [1] was over 30 µM.

With Cc1ccc(NC(=O)Nc2ccc(Cl)c(C(F)(F)F)c2)cc1NC(=O)c1cnoc1C the GI50 (U-937) was over 30 µM, the Activity (A375P) was “inactive” and the GI50 at 24 h [1] was over 30 µM.

From ChEMBL document CHEMBL3616395, “Discovery of 4-arylamido 3-methyl isoxazole derivatives as novel FMS kinase inhibitors” (Eur J Med Chem, 2015)
